This note sets out measurements from PMC6914834, “New Dihydroisocoumarin Root Growth Inhibitors From the Sponge-Derived Fungus Aspergillus sp. NBUF87” (Frontiers in Microbiology, 2019).

Converted amounts (≈) assume the structure as drawn. Read-outs that look alike come from different tables or passages of the source.

In test [1] the test system is methicillin-resistant Staphylococcus aureus ATCC43300. Put plainly: Antibacterial activity assay, MRSA. The settings on record: 96-well plates, read-out: MIC, methicillin-resistant S. aureus ATCC43300. In kind it is cell-based. The procedure: Compounds 1−11 were evaluated for their antibacterial activities against methicillin-resistant Staphylococcus aureus ATCC43300 and Escherichia coli ATCC25922 in 96-well plates according to the method described by [Gu et al. (2018)]. Ciprofloxacin was selected as a positive control against the above-mentioned bacteria with MIC values of 0.5 μg/mL.

The next test concerns MDA-MB-231. Description: In vitro cancer cell cytotoxicity (MTT), MDA-MB-231. The settings on record: Homo sapiens, MDA-MB-231, read-out: cytotoxicity of positive control, MDA-MB-231.
The subject of a further test is AGS. Description: In vitro cancer cell cytotoxicity (MTT), AGS. As to conditions: Homo sapiens, positive control, quantity not given. In kind it is cell-based. Here is the method: (§1) 7-Ethyl-10-hydroxycamptothecin (1.3, 10.8, 9.9, and 4.2 nM, respectively) was used as the positive control against four above-mentioned human cancer cell lines.
The subject of a further test is HCT-116. Description: In vitro cancer cell cytotoxicity (MTT), HCT-116. The settings on record: Homo sapiens, positive control, quantity not given. Type of test: cell-based. Here is the method:
as §1

Another test relates to CCRF-CEM. Put plainly: In vitro cancer cell cytotoxicity (MTT), CCRF-CEM. As to conditions: Homo sapiens, positive control, quantity not given. In kind it is cell-based. The procedure:
as §1

Another test relates to Plasmodium falciparum W2. Description: In vitro antimalarial activity assay. In kind it is cell-based. The procedure: The in vitro antimalarial activity of the compounds was evaluated against the parasite (Plasmodium falciparum W2), which was cultured continuously according to a previously described method ([Lazaro et al., 2006]).
Test [2] deals with Arabidopsis thaliana Columbia-0 (Col-0). Put plainly: Plant growth response assay (root growth). Type of test: in vivo. As to conditions: 100 μM. Here is the method: Arabidopsis thaliana Col-0, a model organism for plant growth and development, was used to test each isolated compound according to a previously described protocol ([Li X. et al., 2018]; [Huang et al., 2019]). Plants grown in 2% (v/v) DMSO were used as the negative control. Seeds of Col-0 incubated in 1 μM of 6-benzylaminopurine (BAP) were selected as the positive control. Test samples were dissolved in 2% (v/v) DMSO at various test concentrations for the experiment.

Setting [3] is: W2, in vitro, positive controls, read-out: EC50, P. falciparum W2 (positive controls).

For orientation: MIC means the lowest concentration found to suppress growth. For the molecule `O=C(O)c1cn(C2CC2)c2cc(N3CCNCC3)c(F)cc2c1=O` [Ciprofloxacin], in test [1], the MIC stood at 0.5 µg/mL (≈ 1.51 µM).
For `CCc1c2c(nc3ccc(O)cc13)-c1cc3c(c(=O)n1C2)COC(=O)[C@]3(O)CC` [7-Ethyl-10-hydroxycamptothecin], the IC50 in the test on MDA-MB-231 stood at 10.8 nM; in the test with AGS it was 4.2 nM; in the test with HCT-116 it was 9.9 nM; in the test on CCRF-CEM, 1.3 nM.
The term EC50 denotes the concentration giving half of the maximal effect. For `O=C1C(O)=C([C@H]2CC[C@H](c3ccc(Cl)cc3)CC2)C(=O)c2ccccc21` [atovaquone], the EC50 in the test with Plasmodium falciparum W2 (setting [3]) turned out to be 2.5 nM.
On to `C[C@@H]1CC[C@H]2[C@@H](C)C(=O)O[C@@H]3O[C@@]4(C)CC[C@@H]1[C@]32OO4` [artemisinin], for which the EC50 with Plasmodium falciparum W2 (setting [3]) was 160 nM.
On to `C[C@H](O)CCC[C@H]1OC(=O)c2c(O)cccc2[C@@H]1O` [Compound 5, aspergimarin E], for which the “root growth inhibitory activity in plant growth response assay” value in test [2] is reported as “root growth inhibitory activity was observed”. In addition, in test [2] (10 days after seed germination), the “inhibition of primary root growth of Col-0” value is listed as “notable inhibition” and the “inhibitory effect on lateral root growth of Col-0” value is given as “notable inhibition”.
As to `CCN(CC)CCCC(C)Nc1ccnc2cc(Cl)ccc12` (stereo not shown) [Chloroquine], in the test on Plasmodium falciparum W2 (W2, read-out: EC50, P. falciparum W2 (positive controls)), the EC50 was 112 nM.
In the case of `C[C@H](O)CCC[C@@H]1Cc2c(O)ccc(O)c2C(=O)O1` [Compound 1, aspergimarin A], in test [2], the “root growth inhibitory activity in plant growth response assay” value is “root growth inhibitory activity was observed”. Besides, in test [2] (10 days after seed germination), the “inhibitory effect on lateral root growth of Col-0” value was “significant inhibitory effect”.
